The source of these data is US12286443B2, “Bycyclic JAK inhibitors and uses thereof” (Insilico Medicine IP Limited, priority 2019, dated 2025).

Usually IC50 stands for the concentration that gives 50% inhibition.

Bounds are passed on as bounds.

One assay deals with T1, JAK3 (Homo sapiens, UniProt P52333).
T1 construct: purchased Invitrogen PV4080
T1 sequence (P52333 1-1124): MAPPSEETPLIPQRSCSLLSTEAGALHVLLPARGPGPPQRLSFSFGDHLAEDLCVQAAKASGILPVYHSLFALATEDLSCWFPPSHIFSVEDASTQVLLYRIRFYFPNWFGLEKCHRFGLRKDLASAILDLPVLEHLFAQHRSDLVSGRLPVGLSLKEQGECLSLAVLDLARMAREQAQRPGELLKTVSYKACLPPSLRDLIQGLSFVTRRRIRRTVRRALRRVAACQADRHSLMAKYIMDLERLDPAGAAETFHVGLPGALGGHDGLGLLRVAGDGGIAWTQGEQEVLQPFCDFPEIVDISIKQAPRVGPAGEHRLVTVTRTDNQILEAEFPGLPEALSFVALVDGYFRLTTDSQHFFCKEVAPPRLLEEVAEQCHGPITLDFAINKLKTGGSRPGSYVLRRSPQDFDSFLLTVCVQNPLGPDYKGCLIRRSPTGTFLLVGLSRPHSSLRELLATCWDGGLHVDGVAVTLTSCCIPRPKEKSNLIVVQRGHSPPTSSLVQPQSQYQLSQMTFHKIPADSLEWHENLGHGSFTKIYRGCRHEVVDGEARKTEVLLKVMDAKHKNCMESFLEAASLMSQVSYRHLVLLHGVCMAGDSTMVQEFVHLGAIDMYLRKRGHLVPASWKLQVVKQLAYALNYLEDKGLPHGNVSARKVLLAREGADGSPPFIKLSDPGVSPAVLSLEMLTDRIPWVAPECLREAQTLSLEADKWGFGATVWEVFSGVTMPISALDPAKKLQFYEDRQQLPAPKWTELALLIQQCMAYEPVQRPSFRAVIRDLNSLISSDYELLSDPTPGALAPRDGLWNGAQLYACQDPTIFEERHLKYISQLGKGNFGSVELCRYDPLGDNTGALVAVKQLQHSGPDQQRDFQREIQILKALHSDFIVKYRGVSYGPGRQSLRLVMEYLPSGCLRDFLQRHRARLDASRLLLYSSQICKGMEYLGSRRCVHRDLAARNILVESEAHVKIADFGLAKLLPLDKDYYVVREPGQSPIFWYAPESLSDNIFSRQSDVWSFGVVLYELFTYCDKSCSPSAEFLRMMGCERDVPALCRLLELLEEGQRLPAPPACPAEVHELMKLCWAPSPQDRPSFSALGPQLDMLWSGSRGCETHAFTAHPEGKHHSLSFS
Description: Inhibition of JAK3 kinase, LANCE Ultra TR-FRET assay. Type of assay: biochemical. Conditions: 2x ATP 8 μM, 15 min pre-incubation, 90 min reaction, 23° C. As for the experimental part: (§1) Exemplary compounds were assayed to determine potency in inhibiting activity of JAK1-3 and TYK2 kinases by determining IC50 values.
(§2) The sources of test materials and equipment are as follows: JAK1 (Invitrogen, Cat. No PV4775), JAK2 (Invitrogen, Cat. No PV4210), JAK3 (Invitrogen, Cat. No PV4080), TYK2 (Invitrogen, Cat. No PR8440C), ATP (Sigma, Cat. No. A7699-1G), DMSO (Sigma, Cat. No. D2650), DTT (Sigma, Cat. No. 43815), 384 wells_compound plate (Greiner, Cat. No. 781280), 384 wells_assay plate (Perkin Elmer, Cat. No. 6007299), LANCE Ultra ULight™-JAK-1 peptide (Perkin Elmer, Cat. No. TRF0121), LANCET™ Eu-W1024 Anti-phosphotyrosine (PT66) (Perkin Elmer, Cat. No. AD0069), LANCET™ Detection Buffer(Perkin Elmer, Cat. No. CR97-100).
(§3) The concentrations of test compounds varied from 100 μM to 1.7 nM with 3-fold dilution, 11 points, in duplicates while the concentrations of the reference compound, Tofacitinib, varied from 1 μM to 0.017 nM with 3-fold dilution, 11 points, in duplicates.
(§4) The assay buffer contained 50 mM HEPES (pH 7.5), 0.01% Brij-35, 10 mM MgCl2, 1 mM EDTA, 2 mM DTT. Incubations were carried out at 23° C.
(§5) Prior to the assay, enzyme, peptide substrate and serially diluted test compounds were pre-incubated together in assay buffer (5 μL) for 15 minutes (peptide substrate concentration: 50 nM; JAK enzyme concentrations: 2 nM JAK1; […]; […] and 4 nM TYK2). And the assay was initiated by the addition of 5 μL assay buffer containing 2× final ATP concentration (these are the 2×ATP concentrations: 76 μM JAK1; 24 μM JAK2; 8 μM JAK3 and 30 μM TYK2). Following the 90-minute incubation, antibody conjugated with Eu is dissolved in detection buffer to add into wells and then incubated for 60 minutes. The 10 μL detection buffer contains EDTA to stop the enzymatic reaction. The plate is analyzed by Perkin Elmer Envision on TR-FRET mode. The high ratio of 665/615 represents no inhibition of kinase reaction while the low ratio of 665/615 represents complete inhibition of kinase reaction.
(§6) Curves are fit by XLFIT5 as inhibition rate % vs. log [compound concentration] using 4 parameters logistic model 205.
(§7) In the table, “A” indicates an IC50 of less than 100 nM, “B” indicates an IC50 range from 100 nM to 500 nM; “C” indicates an IC50 range from 500 nM to 2 μM; and “D” indicates an IC50 greater than 2 μM. Also, “na” indicates data is not available.
Background: Time-resolved FRET reads energy transfer from a long-lived donor to a nearby acceptor.

In a further assay the target is T2, JAK1 (Homo sapiens, UniProt P23458).
T2 construct: purchased Invitrogen PV4775
T2 sequence (P23458 whole entry): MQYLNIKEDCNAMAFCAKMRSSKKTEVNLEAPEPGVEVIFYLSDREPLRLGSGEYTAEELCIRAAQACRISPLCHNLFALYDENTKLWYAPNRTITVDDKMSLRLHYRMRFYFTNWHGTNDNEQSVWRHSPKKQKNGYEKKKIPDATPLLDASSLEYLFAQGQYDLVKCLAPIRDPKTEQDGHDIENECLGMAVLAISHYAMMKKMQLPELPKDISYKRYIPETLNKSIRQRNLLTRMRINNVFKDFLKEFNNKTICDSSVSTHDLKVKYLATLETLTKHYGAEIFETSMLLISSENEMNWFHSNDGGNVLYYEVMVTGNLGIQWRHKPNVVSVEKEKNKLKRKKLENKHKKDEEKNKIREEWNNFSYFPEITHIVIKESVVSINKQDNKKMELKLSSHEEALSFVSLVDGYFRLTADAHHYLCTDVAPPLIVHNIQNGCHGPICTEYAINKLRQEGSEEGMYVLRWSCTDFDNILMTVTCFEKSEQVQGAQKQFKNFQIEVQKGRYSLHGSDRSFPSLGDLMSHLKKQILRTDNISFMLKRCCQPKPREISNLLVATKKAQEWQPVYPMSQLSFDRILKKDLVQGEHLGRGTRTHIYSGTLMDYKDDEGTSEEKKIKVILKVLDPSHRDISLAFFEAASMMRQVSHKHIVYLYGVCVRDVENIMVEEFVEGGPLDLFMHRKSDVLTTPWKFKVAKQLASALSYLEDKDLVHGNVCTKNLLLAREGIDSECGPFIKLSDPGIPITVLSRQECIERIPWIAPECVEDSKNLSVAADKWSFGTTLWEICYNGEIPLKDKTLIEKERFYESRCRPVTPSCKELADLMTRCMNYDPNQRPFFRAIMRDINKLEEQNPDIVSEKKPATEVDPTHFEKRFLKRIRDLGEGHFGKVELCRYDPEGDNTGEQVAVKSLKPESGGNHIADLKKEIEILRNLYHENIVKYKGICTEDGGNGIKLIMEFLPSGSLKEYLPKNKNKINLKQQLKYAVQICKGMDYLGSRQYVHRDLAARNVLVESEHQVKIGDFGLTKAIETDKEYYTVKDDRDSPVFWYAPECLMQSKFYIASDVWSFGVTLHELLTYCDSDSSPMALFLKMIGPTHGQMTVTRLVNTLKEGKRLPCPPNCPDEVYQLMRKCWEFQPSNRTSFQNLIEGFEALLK
The assay is described as follows: Inhibition of JAK1 kinase, LANCE Ultra TR-FRET assay. It is filed as biochemical. Conditions: 2 nM JAK1, 2x ATP 76 μM, 15 min pre-incubation, 90 min reaction, 23° C. As for the experimental part: as §1, §2, §3, §4, §5, §6, §7

In the next assay the target is T3, JAK2 (Homo sapiens, UniProt O60674).
T3 construct: purchased Invitrogen PV4210
T3 sequence (O60674 whole entry): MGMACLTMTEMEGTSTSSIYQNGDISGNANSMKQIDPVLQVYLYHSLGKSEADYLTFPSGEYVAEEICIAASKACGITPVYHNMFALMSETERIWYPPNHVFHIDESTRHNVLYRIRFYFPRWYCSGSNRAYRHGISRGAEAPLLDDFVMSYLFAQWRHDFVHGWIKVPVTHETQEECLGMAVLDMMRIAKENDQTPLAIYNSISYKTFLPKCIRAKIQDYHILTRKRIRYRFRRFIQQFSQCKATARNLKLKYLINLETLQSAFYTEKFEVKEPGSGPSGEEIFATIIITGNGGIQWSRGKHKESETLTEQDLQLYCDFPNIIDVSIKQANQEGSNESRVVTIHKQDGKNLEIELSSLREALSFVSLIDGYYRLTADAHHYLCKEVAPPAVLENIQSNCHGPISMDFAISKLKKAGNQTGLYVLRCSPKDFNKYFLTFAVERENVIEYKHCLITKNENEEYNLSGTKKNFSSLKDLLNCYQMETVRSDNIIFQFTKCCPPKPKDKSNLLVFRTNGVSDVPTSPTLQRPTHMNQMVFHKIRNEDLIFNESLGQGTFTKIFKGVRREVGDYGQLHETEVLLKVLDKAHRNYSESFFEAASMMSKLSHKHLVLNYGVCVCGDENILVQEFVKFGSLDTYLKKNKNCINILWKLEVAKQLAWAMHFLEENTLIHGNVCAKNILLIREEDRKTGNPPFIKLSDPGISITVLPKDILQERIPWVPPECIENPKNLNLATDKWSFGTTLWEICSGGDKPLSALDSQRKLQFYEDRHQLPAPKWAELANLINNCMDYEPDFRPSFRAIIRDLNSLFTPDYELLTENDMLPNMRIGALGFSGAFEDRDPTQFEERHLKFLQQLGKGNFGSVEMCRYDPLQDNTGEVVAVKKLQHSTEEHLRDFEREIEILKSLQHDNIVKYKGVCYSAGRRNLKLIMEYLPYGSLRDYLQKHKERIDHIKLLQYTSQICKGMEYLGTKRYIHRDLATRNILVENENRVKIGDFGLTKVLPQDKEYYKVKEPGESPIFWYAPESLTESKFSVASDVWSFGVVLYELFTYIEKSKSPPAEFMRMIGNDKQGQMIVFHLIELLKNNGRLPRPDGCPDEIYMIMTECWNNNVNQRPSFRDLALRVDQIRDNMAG
Description: Inhibition of JAK2 kinase, LANCE Ultra TR-FRET assay. It is filed as biochemical. The note with it: 2x ATP 24 μM, 15 min pre-incubation, 90 min reaction, 23° C. As for the experimental part:
as §1, §2, §3, §4, §5, §6, §7

The test system of another assay is Hut-78 cells. The assay is described as follows: Inhibition in Hut-78 cells (IL-2 stimulated, HTRF). Conditions: Homo sapiens, HuT78; compound 2 hours at 37° C., then IL-2 100 ng/mL 10 min; HTRF; read-out: Hut-78 cells IC50. It is filed as cell-based. As for the experimental part:
Exemplary compounds were assayed to determine potency in inhibiting Hut-78 cells by determining IC50 values.
Hut-78 cells were cultures in IMDM+20% FBS medium. Cells were maintained in log phase before the assay. Cell pellets were collected and resuspended in serum-free and phenol-free RPMI 1640 medium. 40,000 cells/well (10 μL) were seeded in each well of a 384-well plate and incubated with and without compound for 2 hours at 37° C. and 5% C02. IL-2 was added (2 μL, final concentration 100 ng/mL) and the mixture was incubated for 10 min. Cells were lysed by adding 4 μL labeled antibodies and the mixture was incubated overnight. The plate was read using the HTRF protocol on an Envision plate reader. The data was analyzed using XL-fit software (Supplier: ID business solutions Ltd.; Software version: XL fit 5.0). Inhibition %=(Max−Sample value)/(Max−Min)*100.
In the table, “A” indicates an IC50 of less than 0.5 μM, “B” indicates an IC50 range from 0.5 μM to 1 μM; and “C” indicates an IC50 range from 1 μM to 10 μM. Also, “na” indicates data is not available.

For another assay, the target named is T4, TYK2 (Homo sapiens, UniProt P29597).
T4 construct: purchased Invitrogen PR8440C
T4 sequence (P29597 whole entry): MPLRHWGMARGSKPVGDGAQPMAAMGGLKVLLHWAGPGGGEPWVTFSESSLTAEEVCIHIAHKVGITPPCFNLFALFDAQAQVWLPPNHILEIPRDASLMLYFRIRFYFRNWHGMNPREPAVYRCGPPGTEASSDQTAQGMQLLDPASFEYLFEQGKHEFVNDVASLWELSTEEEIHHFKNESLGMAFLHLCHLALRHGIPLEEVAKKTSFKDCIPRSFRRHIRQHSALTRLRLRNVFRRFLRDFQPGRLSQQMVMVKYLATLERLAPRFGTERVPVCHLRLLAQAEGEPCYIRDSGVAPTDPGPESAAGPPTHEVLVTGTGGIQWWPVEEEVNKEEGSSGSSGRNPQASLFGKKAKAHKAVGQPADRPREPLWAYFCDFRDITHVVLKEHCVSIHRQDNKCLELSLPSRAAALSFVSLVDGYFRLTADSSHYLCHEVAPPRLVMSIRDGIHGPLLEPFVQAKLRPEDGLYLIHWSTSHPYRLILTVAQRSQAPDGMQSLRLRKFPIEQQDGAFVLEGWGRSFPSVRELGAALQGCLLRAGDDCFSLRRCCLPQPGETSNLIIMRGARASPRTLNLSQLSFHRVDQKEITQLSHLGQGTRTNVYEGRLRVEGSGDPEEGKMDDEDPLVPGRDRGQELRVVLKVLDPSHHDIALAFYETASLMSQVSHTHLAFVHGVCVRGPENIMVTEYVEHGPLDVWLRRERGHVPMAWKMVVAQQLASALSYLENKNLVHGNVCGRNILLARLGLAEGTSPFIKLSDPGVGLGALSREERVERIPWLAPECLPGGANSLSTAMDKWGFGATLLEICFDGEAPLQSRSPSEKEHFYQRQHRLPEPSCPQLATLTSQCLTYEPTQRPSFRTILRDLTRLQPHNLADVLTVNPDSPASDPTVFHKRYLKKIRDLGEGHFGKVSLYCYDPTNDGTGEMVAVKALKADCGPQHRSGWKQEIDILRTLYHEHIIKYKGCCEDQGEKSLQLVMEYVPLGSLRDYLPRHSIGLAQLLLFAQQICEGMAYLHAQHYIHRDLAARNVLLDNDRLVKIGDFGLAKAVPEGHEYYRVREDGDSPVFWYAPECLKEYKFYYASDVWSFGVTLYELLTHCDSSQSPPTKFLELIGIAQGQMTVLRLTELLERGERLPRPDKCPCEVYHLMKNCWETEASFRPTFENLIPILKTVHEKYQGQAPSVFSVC
Description: Inhibition of TYK2 kinase, LANCE Ultra TR-FRET assay. Type of assay: biochemical. The note with it: 4 nM TYK2, 2x ATP 30 μM, 15 min pre-incubation, 90 min reaction, 23° C., read-out: tyk IC50. Here is the method:
as §1, §2, §3, §4, §5, §6, §7

On to `O=C(NCCC(F)(F)F)c1noc2c1CN(c1ncnc3[nH]ccc13)CC2` [Compound 110], for which the IC50 against JAK3 was < 100 nM; against JAK1, < 100 nM; at JAK2, < 100 nM; in the assay on Hut-78 cells, 500 to 1000 nM; at TYK2, 100 to 500 nM.

Consider `O=C(NCCC(F)(F)F)c1nn(Cc2ccncc2)c2c1CN(c1ncnc3[nH]ccc13)CC2` [Compound 105], for which the IC50 is < 100 nM against JAK3; 100 to 500 nM on JAK1; 100 to 500 nM on JAK2; 500 to 1000 nM in the assay with Hut-78 cells; > 2000 nM at TYK2.

As for `O=C(NCCS(=O)(=O)N1CCCC1)c1noc2c1CN(c1ncnc3[nH]ccc13)CC2` [Compound 135], the IC50 against JAK3 was 100 to 500 nM; on JAK1, 100 to 500 nM; against JAK2, 100 to 500 nM; on TYK2, > 2000 nM.

For the molecule `O=C(NCCC(F)(F)F)c1nsc2c1CN(c1ncnc3[nH]ccc13)CC2` [Compound 141], the IC50 is < 100 nM against JAK3, < 100 nM against JAK1, < 100 nM at JAK2 and 100 to 500 nM at TYK2.

In the case of `O=C(NCCC(F)(F)F)c1noc2c1CN(c1ncnc3[nH]cnc13)CC2` [Compound 188], the IC50 against JAK3 was 100 to 500 nM; at JAK1 it was 100 to 500 nM; against JAK2, 500 to 2000 nM; on TYK2 it was > 2000 nM.

For the molecule `CCn1nc(C(=O)NCCC(F)(F)F)c2c1CCN(c1ncnc3[nH]ccc13)C2` [Compound 112], the IC50 is < 100 nM against JAK3, 100 to 500 nM on JAK1, 500 to 2000 nM at JAK2 and > 2000 nM on TYK2.

On to `O=C(NCCC(F)(F)F)c1nn(C2CCOCC2)c2c1CN(c1ncnc3[nH]ccc13)CC2` [Compound 118], for which the IC50 at JAK3 was 100 to 500 nM; against JAK1 it was 500 to 2000 nM; against JAK2, > 2000 nM; on TYK2, > 2000 nM.

For the molecule `CN1CCCC1CCNC(=O)c1noc2c1CN(c1ncnc3[nH]ccc13)CC2` (stereo not drawn) [Compound 155], the IC50 is 500 to 2000 nM against JAK3, 500 to 2000 nM against JAK1, 500 to 2000 nM against JAK2 and > 2000 nM on TYK2.

As for `O=C(NCCC(F)(F)F)n1ccc2c1CN(c1ncnc3[nH]ccc13)CC2` [Compound 132], the IC50 at JAK3 was 500 to 2000 nM; against JAK1, 100 to 500 nM; against JAK2, 500 to 2000 nM; on TYK2, > 2000 nM.

Consider `O=C(NCCc1ccccc1)c1noc2c1CN(c1ncnc3[nH]ccc13)CC2` [Compound 163], for which the half-maximal inhibitory concentration (IC50) was < 100 nM at JAK3, 100 to 500 nM against JAK1, 100 to 500 nM at JAK2 and > 2000 nM at TYK2.

With `O=C(NCCC(F)(F)F)c1nn(C2CCC2)c2c1CN(c1ncnc3[nH]ccc13)CC2` [Compound 117], the IC50 at JAK3 was < 100 nM; on JAK1 it was 100 to 500 nM; against JAK2, 500 to 2000 nM; at TYK2, > 2000 nM.

Take `O=C(NCCC1CCCC1)c1noc2c1CN(c1ncnc3[nH]ccc13)CC2` [Compound 158]: the IC50 is < 100 nM at JAK3, 100 to 500 nM on JAK1, 100 to 500 nM at JAK2 and > 2000 nM at TYK2.

Regarding `O=C(NCCC(F)(F)F)c1nn(Cc2ccccc2)c2c1CN(c1ncnc3[nH]ccc13)CC2` [Compound 111], the IC50 was < 100 nM against JAK3, 100 to 500 nM on JAK1, 500 to 2000 nM against JAK2 and > 2000 nM at TYK2.

For `O=C(NCCC(F)(F)F)c1nn(CCCc2ccccc2)c2c1CN(c1ncnc3[nH]ccc13)CC2` [Compound 115], the IC50 at JAK3 was 100 to 500 nM; on JAK1 it was 500 to 2000 nM; against JAK2, > 2000 nM; on TYK2, > 2000 nM.

For the molecule `O=C(NCCN1CCC1)c1noc2c1CN(c1ncnc3[nH]ccc13)CC2` [Compound 152], the IC50 on JAK3, at JAK1, at JAK2 and at TYK2 was > 2000 nM throughout.

With `O=C(NCC1CCC1O)c1noc2c1CN(c1ncnc3[nH]ccc13)CC2` (stereo not drawn) [Compound 150], the IC50 on JAK3 is < 100 nM; on JAK1 it was 100 to 500 nM; at JAK2 it was 100 to 500 nM; at TYK2 it was > 2000 nM.

For the molecule `O=C(NCCC1CC(F)(F)C1)c1noc2c1CN(c1ncnc3[nH]ccc13)CC2` [Compound 148], the IC50 against JAK3 is 100 to 500 nM; against JAK1 it was 100 to 500 nM; against JAK2 it was 500 to 2000 nM; on TYK2, > 2000 nM.

On to `CS(=O)(=O)N1CCC(CCNC(=O)c2noc3c2CN(c2ncnc4[nH]ccc24)CC3)C1` (stereo not drawn) [Compound 165], for which the IC50 on JAK3, against JAK1, on JAK2 and on TYK2 was > 2000 nM throughout.

Regarding `O=C(NCCN1CCS(=O)(=O)CC1)c1noc2c1CN(c1ncnc3[nH]ccc13)CC2` [Compound 161], the half-inhibitory concentration (IC50) on JAK3 is 500 to 2000 nM; against JAK1, 500 to 2000 nM; against JAK2, > 2000 nM; at TYK2, > 2000 nM.
